According to US8415469B2, “Compounds and methods for kinase modulation, and indications therefor” (Plexxikon Inc., priority 2005, dated 2013):

Experiments:
Format in all cases: biochemical
MAPKAPK2 = target: T1, MAPKAPK2 (Homo sapiens, UniProt P49137); assay: Z'-Lyte FRET kinase assay (Invitrogen), MAPKAPK2; conditions: read-out: IC50, activity toward kinase MAPKAPK2
T1 construct: purchased Invitrogen (assay run by Invitrogen)
Excerpt: The effect of potential modulators of kinase activity can be measured in a variety of different assays known in the art. For example, direct radiometric, indirect FRET or AlphaScreen assays may be used to assess the level of phosphorylation of a substrate in the presence of test compounds in order to determine the inhibitory affect of the compound on the kinase. Invitrogen (Carlsbad, Calif.) uses a FRET based assay for Btk, EGFR, EphB2, Flt3, lrak4, Kdr, MAP2K1, MAPKAPK2, PDGFRB, PKC theta, Stk6 and Yes. For these assays, compounds of the invention were screened by Invitrogen using Z′-Lyte™ kinase assay.
Briefly, the Invitrogen kinase assay involves use of a specific peptide substrate optimized for each kinase, containing a fluorophore at each end that make up the FRET pair. The peptide sensitivity to proteolytic cleavage depends on phosphorylation of the peptide. Non-phosphorylated peptide is cleaved by a protease while peptide phosphorylated by the kinase is not cleaved. Cleavage of the peptide disrupts the FRET between the donor (coumarin) and acceptor (fluorescein) fluorophores, resulting in an increase in the ratio of donor emission to acceptor emission. The emission ratio of coumarin to fluorescein is used to assess the reaction progress. The extent of phosphorylation is determined from the emission ratio, which is low when the kinase is active (phosphorylated peptide is not cleaved, FRET pair connected) or higher for inhibited kinase (non-phosphorylated peptide is cleaved, FRET pair separated). Thus, the assay involves a kinase reaction in the presence of varying concentrations of a given compound, a development reaction with site specific protease, and detection of the fluorescent emission ratio of coumarin and fluorscein. […] Reaction conditions for each kinase are determined to provide optimal reaction times, incubation temperature, kinase and ATP concentrations. Test samples are made up in 1× kinase buffer (50 mM HEPES pH 7.5, 50 mM MgCl2, 5 mM EGTA, 0.05% BRIJ-35) and compound at desired concentration prepared in DMSO such that the final DMSO is 1%. […] Typically, assay plates are prepared to 10 μl final volume per sample, adding 2.5 μl of compound at 4× the desired concentration in 4% DMSO (serial dilution of compound provides concentration curve), 5 μl of the desired kinase mixed with Z′-LYTE™ peptide substrate (2× in 2× kinase buffer, final peptide at 2 μM), and 2.5 μl of 4×ATP solution. All kinase except for MAP2K1 were at 10 μM ATP in the kinase reaction, while MAP2K1 was at 100 μM. Samples are mixed and the kinase reaction is incubated 1 hour at room temperature, after which 5 μl of development solution is added and mixed. After incubation for another 1 hour at room temperature, 5 μl of stop reagent is added to each sample and mixed. The fluorescence signals are measured to determine the emission ratio.

Syk = Syk (Homo sapiens, UniProt P43405); assay: AlphaScreen kinase assay, Syk; conditions: read-out: IC50, activity toward kinase Syk
Excerpt: (§1) AlphaScreen assay was used to screen additional kinases. The assay is similarly dependent on the phosphorylation of a peptide substrate. In this assay, an antibody that recognizes phosphorylated substrate is bound to an acceptor bead. The peptide substrate is attached to biotin, which binds to a donor head that contains streptavidin. Thus phosphorylated substrate is bound by antibody and streptavidin, bringing the donor and acceptor heads into close proximity when kinase is not inhibited. The donor produces singlet oxygen which results in emission from the acceptor when they are in close proximity. Conversely, when kinase is inhibited, the donor and acceptor beads are not associated and the emission from the acceptor is reduced.
(§2) AlphaScreen assays were done using compounds dissolved in DMSO to a concentration of 20 mM. The compounds were diluted accordingly to the desired final concentrations in each sample well, using 1:3 serial dilution for a total of 8 concentration points.

Gsk3β = Gsk3β (Homo sapiens, UniProt P49841); assay: AlphaScreen kinase assay, Gsk3β; conditions: read-out: IC50, activity toward kinase Gsk3β
Gsk3β, sequence (P49841 whole entry): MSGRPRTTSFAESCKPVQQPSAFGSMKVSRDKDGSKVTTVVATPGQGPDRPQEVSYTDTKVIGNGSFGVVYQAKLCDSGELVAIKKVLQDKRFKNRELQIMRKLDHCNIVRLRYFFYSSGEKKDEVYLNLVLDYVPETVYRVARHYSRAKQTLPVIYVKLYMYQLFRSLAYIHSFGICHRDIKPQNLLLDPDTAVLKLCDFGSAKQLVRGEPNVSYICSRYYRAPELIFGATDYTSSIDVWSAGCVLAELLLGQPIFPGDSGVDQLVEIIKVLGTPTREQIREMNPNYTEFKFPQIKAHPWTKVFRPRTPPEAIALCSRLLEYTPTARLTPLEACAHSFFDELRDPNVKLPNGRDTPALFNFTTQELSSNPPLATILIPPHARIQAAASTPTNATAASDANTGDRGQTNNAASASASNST
Procedure, shortened: (§3)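 Eight concentrations per compound (1:3 serial dilution of 20 mM DMSO stock) were tested. Read-out: AlphaScreen signal from phospho-antibody acceptor and streptavidin donor beads bound to biotinylated peptide substrate, reduced on kinase inhibition.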

Stk6 = target: T2, Stk6 (Homo sapiens, UniProt O14965); assay: Z'-Lyte FRET kinase assay (Invitrogen), Stk6; conditions: read-out: IC50, activity toward kinase Stk6
T2 construct: purchased Invitrogen (Carlsbad, Calif.), screening service
T2 sequence (O14965 1-403): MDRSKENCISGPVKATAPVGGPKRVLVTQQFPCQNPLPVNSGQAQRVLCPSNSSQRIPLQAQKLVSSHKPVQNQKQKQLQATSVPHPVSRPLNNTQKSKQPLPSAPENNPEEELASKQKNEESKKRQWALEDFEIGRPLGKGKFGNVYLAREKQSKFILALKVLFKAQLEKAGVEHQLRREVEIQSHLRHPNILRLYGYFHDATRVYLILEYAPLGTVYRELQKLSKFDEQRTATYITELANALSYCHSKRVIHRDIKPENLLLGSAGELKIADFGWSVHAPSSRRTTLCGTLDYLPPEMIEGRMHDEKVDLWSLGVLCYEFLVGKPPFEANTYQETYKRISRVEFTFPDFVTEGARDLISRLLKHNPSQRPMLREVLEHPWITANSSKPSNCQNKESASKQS

Akt3 = Akt3 (Homo sapiens, UniProt Q9Y243); assay: AlphaScreen kinase assay, Akt3; conditions: read-out: IC50, activity toward kinase Akt3
Akt3, sequence (Q9Y243 whole entry): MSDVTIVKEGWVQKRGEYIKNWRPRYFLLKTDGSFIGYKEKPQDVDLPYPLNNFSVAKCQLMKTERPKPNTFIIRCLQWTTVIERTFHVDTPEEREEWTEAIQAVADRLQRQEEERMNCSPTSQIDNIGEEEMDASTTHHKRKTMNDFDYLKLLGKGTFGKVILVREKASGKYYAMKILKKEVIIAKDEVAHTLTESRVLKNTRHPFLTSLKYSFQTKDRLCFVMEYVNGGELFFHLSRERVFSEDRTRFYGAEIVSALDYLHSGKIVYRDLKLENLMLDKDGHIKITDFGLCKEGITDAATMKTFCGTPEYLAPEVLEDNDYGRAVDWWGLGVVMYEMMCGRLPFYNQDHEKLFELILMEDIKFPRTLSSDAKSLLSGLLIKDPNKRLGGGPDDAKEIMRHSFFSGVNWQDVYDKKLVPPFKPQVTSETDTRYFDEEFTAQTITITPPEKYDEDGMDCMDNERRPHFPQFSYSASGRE
Procedure, shortened: as §3

MAP4K4 = MAP4K4 (Homo sapiens, UniProt O95819); assay: AlphaScreen kinase assay, MAP4K4; conditions: read-out: IC50, activity toward kinase MAP4K4
MAP4K4, sequence (O95819 whole entry): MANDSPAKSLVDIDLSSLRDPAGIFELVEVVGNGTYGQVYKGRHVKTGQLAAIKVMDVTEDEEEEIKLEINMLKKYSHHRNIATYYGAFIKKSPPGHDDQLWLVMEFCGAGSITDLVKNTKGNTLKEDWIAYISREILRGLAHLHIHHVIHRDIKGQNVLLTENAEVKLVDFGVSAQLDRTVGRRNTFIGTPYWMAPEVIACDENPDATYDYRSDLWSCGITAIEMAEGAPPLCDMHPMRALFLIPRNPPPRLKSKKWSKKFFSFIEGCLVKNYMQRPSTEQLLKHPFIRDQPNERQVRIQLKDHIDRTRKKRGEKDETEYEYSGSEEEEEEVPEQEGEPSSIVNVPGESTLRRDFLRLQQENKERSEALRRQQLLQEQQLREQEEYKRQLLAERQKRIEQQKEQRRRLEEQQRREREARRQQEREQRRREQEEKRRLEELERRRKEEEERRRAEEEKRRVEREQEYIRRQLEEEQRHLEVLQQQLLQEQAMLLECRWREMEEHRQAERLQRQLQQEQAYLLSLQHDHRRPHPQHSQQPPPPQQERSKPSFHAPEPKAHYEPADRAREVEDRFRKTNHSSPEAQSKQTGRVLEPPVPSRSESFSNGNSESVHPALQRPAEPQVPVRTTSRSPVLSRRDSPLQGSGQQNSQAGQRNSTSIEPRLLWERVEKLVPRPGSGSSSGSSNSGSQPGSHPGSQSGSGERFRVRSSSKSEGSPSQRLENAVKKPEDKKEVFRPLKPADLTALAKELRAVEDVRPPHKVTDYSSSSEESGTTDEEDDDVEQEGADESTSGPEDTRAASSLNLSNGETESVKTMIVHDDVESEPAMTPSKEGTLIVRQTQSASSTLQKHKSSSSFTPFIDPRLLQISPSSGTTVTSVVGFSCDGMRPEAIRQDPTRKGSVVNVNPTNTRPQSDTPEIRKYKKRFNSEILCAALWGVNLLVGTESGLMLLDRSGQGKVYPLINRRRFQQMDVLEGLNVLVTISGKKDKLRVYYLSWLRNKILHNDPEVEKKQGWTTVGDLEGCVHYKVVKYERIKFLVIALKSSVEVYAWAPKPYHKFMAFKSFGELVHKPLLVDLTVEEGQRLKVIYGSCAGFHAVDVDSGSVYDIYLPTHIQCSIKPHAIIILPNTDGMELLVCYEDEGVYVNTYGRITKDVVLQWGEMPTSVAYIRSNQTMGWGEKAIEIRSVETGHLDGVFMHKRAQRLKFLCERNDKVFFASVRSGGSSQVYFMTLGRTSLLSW

PKC theta = target: T3, PKC theta (Homo sapiens, UniProt Q04759); assay: Z'-Lyte FRET kinase assay (Invitrogen), PKC theta; conditions: read-out: IC50, activity toward kinase PKC theta
T3 construct: purchased Invitrogen (Carlsbad, Calif.), screening service
T3 sequence (Q04759 whole entry): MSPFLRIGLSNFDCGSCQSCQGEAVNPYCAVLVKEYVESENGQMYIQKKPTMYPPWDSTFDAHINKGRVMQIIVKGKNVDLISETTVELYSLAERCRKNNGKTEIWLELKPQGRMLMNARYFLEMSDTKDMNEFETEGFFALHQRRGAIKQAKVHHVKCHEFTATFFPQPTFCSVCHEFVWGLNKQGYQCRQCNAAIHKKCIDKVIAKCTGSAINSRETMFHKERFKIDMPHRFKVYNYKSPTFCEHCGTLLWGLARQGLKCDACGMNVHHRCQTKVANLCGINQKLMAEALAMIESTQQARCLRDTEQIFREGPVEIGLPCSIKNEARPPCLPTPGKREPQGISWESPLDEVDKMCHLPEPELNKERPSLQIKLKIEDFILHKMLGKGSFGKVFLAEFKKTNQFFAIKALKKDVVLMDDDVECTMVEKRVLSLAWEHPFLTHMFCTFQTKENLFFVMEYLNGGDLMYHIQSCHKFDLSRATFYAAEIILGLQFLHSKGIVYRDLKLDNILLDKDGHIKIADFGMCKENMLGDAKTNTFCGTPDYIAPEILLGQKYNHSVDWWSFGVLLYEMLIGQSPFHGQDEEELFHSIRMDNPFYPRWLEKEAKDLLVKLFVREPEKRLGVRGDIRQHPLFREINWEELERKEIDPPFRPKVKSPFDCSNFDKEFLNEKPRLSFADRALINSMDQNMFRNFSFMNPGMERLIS
Procedure, shortened: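 Serially diluted compound (final 1% DMSO) incubated 1 h at room temperature with kinase, 2 μM FRET peptide and 10 μM ATP in pH 7.5 HEPES buffer. Site-specific protease then cleaves unphosphorylated peptide (1 h); inhibition read as increased coumarin-to-fluorescein emission ratio.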

MAP2K1 = target: T4, MAP2K1 (Homo sapiens, UniProt Q02750); assay: Z'-Lyte FRET kinase assay (Invitrogen), MAP2K1; conditions: read-out: IC50, activity toward kinase MAP2K1
T4 construct: purchased Invitrogen (assay run by Invitrogen)
T4 sequence (Q02750 whole entry): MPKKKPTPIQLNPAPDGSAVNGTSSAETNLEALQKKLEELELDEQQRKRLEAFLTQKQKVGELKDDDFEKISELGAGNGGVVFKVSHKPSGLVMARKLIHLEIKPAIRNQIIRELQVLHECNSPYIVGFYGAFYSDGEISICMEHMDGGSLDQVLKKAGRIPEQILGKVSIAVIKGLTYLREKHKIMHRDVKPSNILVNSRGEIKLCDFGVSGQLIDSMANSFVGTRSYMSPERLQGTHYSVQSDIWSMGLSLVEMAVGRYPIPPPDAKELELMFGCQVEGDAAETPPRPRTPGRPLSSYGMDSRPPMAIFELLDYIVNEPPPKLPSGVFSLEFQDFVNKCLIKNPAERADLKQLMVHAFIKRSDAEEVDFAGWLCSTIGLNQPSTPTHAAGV

ROCK1 = ROCK1 (Homo sapiens, UniProt Q13464); assay: AlphaScreen kinase assay, ROCK1; conditions: read-out: IC50, activity toward kinase ROCK1
ROCK1, sequence (Q13464 whole entry): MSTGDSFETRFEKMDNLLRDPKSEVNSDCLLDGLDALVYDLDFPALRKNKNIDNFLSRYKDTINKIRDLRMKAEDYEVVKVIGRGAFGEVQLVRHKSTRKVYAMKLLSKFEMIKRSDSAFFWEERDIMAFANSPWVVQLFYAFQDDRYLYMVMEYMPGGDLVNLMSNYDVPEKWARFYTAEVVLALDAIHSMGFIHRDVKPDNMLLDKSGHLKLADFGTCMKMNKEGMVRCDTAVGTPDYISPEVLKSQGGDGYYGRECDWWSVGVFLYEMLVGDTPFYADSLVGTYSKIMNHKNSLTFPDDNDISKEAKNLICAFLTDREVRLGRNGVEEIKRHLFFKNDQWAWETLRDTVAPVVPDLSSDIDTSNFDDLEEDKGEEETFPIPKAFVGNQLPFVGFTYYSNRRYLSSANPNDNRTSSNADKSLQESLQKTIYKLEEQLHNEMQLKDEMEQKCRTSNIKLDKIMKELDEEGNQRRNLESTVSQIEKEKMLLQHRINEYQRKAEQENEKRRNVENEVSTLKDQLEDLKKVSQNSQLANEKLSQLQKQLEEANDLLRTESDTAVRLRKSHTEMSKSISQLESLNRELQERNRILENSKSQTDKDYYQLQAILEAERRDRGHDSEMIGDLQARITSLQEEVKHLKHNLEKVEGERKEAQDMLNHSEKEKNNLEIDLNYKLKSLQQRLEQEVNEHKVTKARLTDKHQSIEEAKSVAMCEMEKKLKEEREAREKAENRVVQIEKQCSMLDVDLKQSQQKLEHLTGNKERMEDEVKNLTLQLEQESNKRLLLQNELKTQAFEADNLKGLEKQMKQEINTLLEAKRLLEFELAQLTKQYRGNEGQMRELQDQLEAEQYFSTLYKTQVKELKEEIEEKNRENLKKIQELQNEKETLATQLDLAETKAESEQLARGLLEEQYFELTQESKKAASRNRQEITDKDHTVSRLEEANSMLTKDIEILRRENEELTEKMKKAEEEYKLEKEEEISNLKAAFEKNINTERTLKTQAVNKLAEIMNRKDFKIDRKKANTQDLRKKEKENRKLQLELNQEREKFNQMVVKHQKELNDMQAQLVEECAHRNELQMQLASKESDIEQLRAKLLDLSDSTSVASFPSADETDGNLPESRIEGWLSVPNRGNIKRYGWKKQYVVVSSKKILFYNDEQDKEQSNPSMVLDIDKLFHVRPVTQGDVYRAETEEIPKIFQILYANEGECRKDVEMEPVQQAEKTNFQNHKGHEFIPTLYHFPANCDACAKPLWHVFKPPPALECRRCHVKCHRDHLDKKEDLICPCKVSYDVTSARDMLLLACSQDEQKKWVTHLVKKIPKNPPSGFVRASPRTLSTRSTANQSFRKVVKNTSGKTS
Excerpt: as §1, §2

Kdr = target: T5, Kdr (Homo sapiens, UniProt P35968); assay: Z'-Lyte FRET kinase assay (Invitrogen), Kdr; conditions: read-out: IC50, activity toward kinase Kdr
T5 construct: purchased Invitrogen (assay run by Invitrogen)

IKK beta = target: T6, IKK beta (Homo sapiens, UniProt O14920); assay: AlphaScreen kinase assay, IKK beta; conditions: read-out: IC50, activity toward kinase IKK beta
T6 sequence (O14920 1-756): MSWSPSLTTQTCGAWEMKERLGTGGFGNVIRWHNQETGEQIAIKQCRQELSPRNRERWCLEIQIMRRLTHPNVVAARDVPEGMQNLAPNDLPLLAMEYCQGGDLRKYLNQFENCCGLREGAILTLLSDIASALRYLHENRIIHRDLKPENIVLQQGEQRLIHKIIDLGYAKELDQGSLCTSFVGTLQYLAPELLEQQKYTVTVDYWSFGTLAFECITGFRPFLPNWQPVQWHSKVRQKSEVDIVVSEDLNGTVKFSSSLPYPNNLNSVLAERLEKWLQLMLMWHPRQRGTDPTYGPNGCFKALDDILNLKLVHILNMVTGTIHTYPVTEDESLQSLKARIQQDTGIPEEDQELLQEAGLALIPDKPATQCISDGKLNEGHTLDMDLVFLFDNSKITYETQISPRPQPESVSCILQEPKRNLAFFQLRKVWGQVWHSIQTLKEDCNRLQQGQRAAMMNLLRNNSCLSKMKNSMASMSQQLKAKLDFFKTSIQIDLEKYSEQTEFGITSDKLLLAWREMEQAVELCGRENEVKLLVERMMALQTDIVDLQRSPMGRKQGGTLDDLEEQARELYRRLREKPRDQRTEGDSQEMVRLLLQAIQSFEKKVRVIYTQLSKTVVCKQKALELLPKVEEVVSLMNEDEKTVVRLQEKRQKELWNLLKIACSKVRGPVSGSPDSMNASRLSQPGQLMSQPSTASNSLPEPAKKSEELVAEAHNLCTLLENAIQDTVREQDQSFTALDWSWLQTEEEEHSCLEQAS
Description: AlphaScreen assays were done using compounds dissolved in DMSO to a concentration of 20 mM. The compounds were diluted accordingly to the desired final concentrations in each sample well, using 1:3 serial dilution for a total of 8 concentration points. Plates were prepared such that each kinase reaction is 20 μl in 1× kinase buffer, 5% DMSO and 10 μM ATP. After incubation of the kinase reaction for 1 hour at room temperature, 5 μl of donor beads in stop buffer (50 mM EDTA in 1× kinase buffer) was added, the sample was mixed and incubated for 20 minutes at room temperature before adding 5 μl of acceptor beads in stop buffer. The samples were incubated for 60 minutes at room temperature and the signal per well was read on AlphaQuest reader.

Measured: IC50

T1 sequence (P49137 whole entry): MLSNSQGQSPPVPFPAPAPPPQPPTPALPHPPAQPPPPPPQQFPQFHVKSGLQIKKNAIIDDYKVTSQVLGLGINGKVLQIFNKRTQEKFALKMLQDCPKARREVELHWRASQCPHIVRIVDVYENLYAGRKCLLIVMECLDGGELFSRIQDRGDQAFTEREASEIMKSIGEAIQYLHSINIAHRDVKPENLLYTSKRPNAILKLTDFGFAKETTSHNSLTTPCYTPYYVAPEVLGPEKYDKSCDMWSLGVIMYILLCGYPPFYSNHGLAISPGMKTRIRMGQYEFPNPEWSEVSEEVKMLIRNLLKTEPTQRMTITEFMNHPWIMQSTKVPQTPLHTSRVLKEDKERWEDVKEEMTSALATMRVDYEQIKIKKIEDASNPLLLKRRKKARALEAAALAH

OCc1cccc(-c2ccnc3[nH]cc(Sc4ccccn4)c23)c1 [Compound P-0057]
≤ 10 µM: MAPKAPK2 | Syk | Gsk3β | Stk6 | Akt3 | MAP4K4 | PKC theta | MAP2K1 | ROCK1 | Kdr | IKK beta
